Here are results for twelve compounds from US12180193B2, “Accelerating fibrosarcoma protein degrading compounds and associated methods of use” (Arvinas Operations, Inc., priority 2020, dated 2024).

One test has as its target T1, BRAF V600E (Homo sapiens, UniProt P15056, V600E).
T1 construct: expressed in transfected cells
The test can be described thus: Cellular assay of target protein degradation, T-Rex 293 cells stably transfected with HA-BRAF_V600E (HA immunofluorescence, high content imaging). In kind it is cell-based. Conditions: T-Rex 293 HA-BRAF V600E; for DC50: half maximal degradation, read-out: BRaf V600E DC50; for Dmax: maximum degradation observed. In a few lines: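 Degradation of the HA-tagged construct is measured after 24 h treatment at 37 °C across 1 μM to 0.1 nM in 0.1% DMSO, in doxycycline-induced (1 ng/mL) cells. DC50 and Dmax come from HA fluorescence imaging.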

For another test, the target named is T2, BRAF G466V (Homo sapiens, UniProt P15056, G466V).
T2 construct: expressed in transfected cells
T2 sequence (P15056 whole entry G466V): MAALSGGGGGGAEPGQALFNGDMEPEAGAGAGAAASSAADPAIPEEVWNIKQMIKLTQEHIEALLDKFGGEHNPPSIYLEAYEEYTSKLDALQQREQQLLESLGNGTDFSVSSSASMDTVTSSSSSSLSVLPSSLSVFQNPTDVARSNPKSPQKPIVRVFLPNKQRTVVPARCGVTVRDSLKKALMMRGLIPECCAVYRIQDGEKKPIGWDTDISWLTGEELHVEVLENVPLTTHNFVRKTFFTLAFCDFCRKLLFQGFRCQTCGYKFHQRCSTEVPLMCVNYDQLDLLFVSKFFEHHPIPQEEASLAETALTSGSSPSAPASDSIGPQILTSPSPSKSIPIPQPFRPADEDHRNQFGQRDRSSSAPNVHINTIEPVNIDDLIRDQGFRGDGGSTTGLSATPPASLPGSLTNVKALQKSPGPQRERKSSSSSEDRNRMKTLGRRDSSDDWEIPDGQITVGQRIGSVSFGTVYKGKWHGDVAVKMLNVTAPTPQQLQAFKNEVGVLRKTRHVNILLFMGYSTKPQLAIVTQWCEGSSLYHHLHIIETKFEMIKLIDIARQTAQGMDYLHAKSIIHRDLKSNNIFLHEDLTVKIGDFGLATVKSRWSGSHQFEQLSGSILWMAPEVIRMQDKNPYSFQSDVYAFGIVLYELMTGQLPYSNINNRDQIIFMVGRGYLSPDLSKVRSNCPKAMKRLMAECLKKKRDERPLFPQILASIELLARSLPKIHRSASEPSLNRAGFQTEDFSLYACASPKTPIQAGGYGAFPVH
Kind of test: Cellular assay of target protein degradation, T-Rex 293 cells stably transfected with HA-BRAF G466V (HA immunofluorescence, high content imaging). The test is classed as cell-based. Conditions: T-Rex 293 HA-BRAF G466V; for DC50: half maximal degradation, read-out: BRaf G466V DC50; for Dmax: maximum degradation observed. Summed up: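 Dose range spans 30 nM to 3 pM (0.1% DMSO) over 24 hours at 37° C, in cells induced with 0.75 ng/mL doxycycline. Fixed cells are probed with anti-HA antibody overnight at 4° C, then imaged; half-maximal degradation and maximum degradation are derived.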

T1 sequence (P15056 whole entry V600E): as the sequence (P15056 whole entry G466V) above, with V466G, V600E counted along it

`O=C1CC[C@@H](N2Cc3cc(N4CCN(CC5CCN(c6ccc(-c7cnc8[nH]cc(C(=O)c9c(F)ccc(NS(=O)(=O)N%10CC[C@@H](F)C%10)c9F)c8c7)cc6)CC5)CC4)ccc3C2=O)C(=O)N1` [Compound 220, (3R)-N-{3-[5-(4-{4-[(4-{2-[(3R)-2,6-dioxopiperidin-3-yl]-1-oxo-2,3-dihydro-1H-isoindol-5-yl}piperazin-1-yl)methyl]piperidin-1-yl}phenyl)-1H-pyrrolo [2,3-b]pyridine-3-carbonyl]-2,4-difluorophenyl}-3-fluoropyrrolidine-1-sulfonamide]: the DC50 lay in the range of 5 to 50 nM on BRAF V600E and 1 to 10 nM on BRAF G466V. Moreover, the Dmax at BRAF V600E is 35 to 70%; on BRAF G466V it was over 70%.

`O=C1CC[C@H](N2Cc3cc(N4CC5(CN(CC6CCN(c7ccc(-c8cnc9[nH]cc(C(=O)c%10c(F)ccc(NS(=O)(=O)N%11CC[C@@H](F)C%11)c%10F)c9c8)cc7)CC6)C5)C4)ccc3C2=O)C(=O)N1` [Compound 221, (3R)-N-{3-[5-(4-{4-[(6-{2-[(3S)-2,6-dioxopiperidin-3-yl]-1-oxo-2,3-dihydro-1H-isoindol-5-yl}-2,6-diazaspiro[3.3]heptan-2-yl)methyl]piperidin-1-yl}phenyl)-1H-pyrrolo[2,3-b]pyridine-3-carbonyl]-2,4-difluorophenyl}-3-fluoropyrrolidine-1-sulfonamide]: at BRAF V600E, the DC50 was in the range of 5 to 50 nM and the Dmax lay within 35 to 70%. At BRAF G466V, the DC50 was 1 to 10 nM and the Dmax was over 70%.

In the case of `O=C1CC[C@@H](N2Cc3cc(N4CC5(CN(CC6CCN(c7ccc(-c8cnc9[nH]cc(C(=O)c%10c(F)ccc(NS(=O)(=O)N%11CC[C@@H](F)C%11)c%10F)c9c8)cc7)CC6)C5)C4)ccc3C2=O)C(=O)N1` [Compound 222, (3R)-N-{3-[5-(4-{4-[(6-{2-[(3R)-2,6-dioxopiperidin-3-yl]-1-oxo-2,3-dihydro-1H-isoindol-5-yl}-2,6-diazaspiro[3.3]heptan-2-yl)methyl]piperidin-1-yl}phenyl)-1H-pyrrolo[2,3-b]pyridine-3-carbonyl]-2,4-difluorophenyl}-3-fluoropyrrolidine-1-sulfonamide], on BRAF V600E, the DC50 was in the range of 5 to 50 nM and the Dmax is 35 to 70%. Also, at BRAF G466V, the DC50 lay within 1 to 10 nM and the Dmax is over 70%.

As to `O=C1CC[C@H](N2Cc3cc(N4CCC(CN5CCN(c6ccc(-c7cnc8[nH]cc(C(=O)c9c(F)ccc(NS(=O)(=O)N%10CC[C@@H](F)C%10)c9F)c8c7)cc6)CC5)CC4)ccc3C2=O)C(=O)N1` [Compound 223, (3R)-N-{3-[5-(4-{4-[(1-{2-[(3S)-2,6-dioxopiperidin-3-yl]-1-oxo-2,3-dihydro-1H-isoindol-5-yl}piperidin-4-yl)methyl]piperazin-1-yl}phenyl)-1H-pyrrolo [2,3-b]pyridine-3-carbonyl]-2,4-difluorophenyl}-3-fluoropyrrolidine-1-sulfonamide], the figures for the DC50 on BRAF V600E and on BRAF G466V were 5 to 50 nM and 1 to 10 nM, respectively. Further, the results for the Dmax at BRAF V600E and at BRAF G466V were 35 to 70% and over 70%, respectively.

In the case of `O=C1CC[C@@H](N2Cc3cc(N4CCC(CN5CCN(c6ccc(-c7cnc8[nH]cc(C(=O)c9c(F)ccc(NS(=O)(=O)N%10CC[C@@H](F)C%10)c9F)c8c7)cc6)CC5)CC4)ccc3C2=O)C(=O)N1` [Compound 224, (3R)-N-{3-[5-(4-{4-[(1-{2-[(3R)-2,6-dioxopiperidin-3-yl]-1-oxo-2,3-dihydro-1H-isoindol-5-yl}piperidin-4-yl)methyl]piperazin-1-yl}phenyl)-1H-pyrrolo [2,3-b]pyridine-3-carbonyl]-2,4-difluorophenyl}-3-fluoropyrrolidine-1-sulfonamide], the DC50 lay within 5 to 50 nM at BRAF V600E and 1 to 10 nM at BRAF G466V. Moreover, the Dmax on BRAF V600E was 35 to 70%; at BRAF G466V, over 70%.

With `COc1cc(N2CCC(CN3CC4(C3)CN(c3ccc(-c5cnc6[nH]cc(C(=O)c7c(F)ccc(NS(=O)(=O)N8CC[C@@H](F)C8)c7F)c6c5)cc3)C4)CC2)cc2c1C(=O)N([C@@H]1CCC(=O)NC1=O)C2` [Compound 225, (3R)-N-{3-[5-(4-{6-[(1-{2-[(3R)-2,6-dioxopiperidin-3-yl]-7-methoxy-1-oxo-2,3-dihydro-1H-isoindol-5-yl}piperidin-4-yl)methyl]-2,6-diazaspiro[3.3]heptan-2-yl}phenyl)-1H-pyrrolo[2,3-b]pyridine-3-carbonyl]-2,4-difluorophenyl}-3-fluoropyrrolidine-1-sulfonamide], at BRAF V600E, the DC50 lay in the range of 5 to 50 nM and the Dmax lay within 35 to 70%. At BRAF G466V, the DC50 was 1 to 10 nM and the Dmax is over 70%.

Regarding `COc1cc(N2CCC(CN3CC4(C3)CN(c3ccc(-c5cnc6[nH]cc(C(=O)c7c(F)ccc(NS(=O)(=O)N8CC[C@@H](F)C8)c7F)c6c5)cc3)C4)CC2)cc2c1C(=O)N([C@H]1CCC(=O)NC1=O)C2` [Compound 226, (3R)-N-{3-[5-(4-{6-[(1-{2-[(3S)-2,6-dioxopiperidin-3-yl]-7-methoxy-1-oxo-2,3-dihydro-1H-isoindol-5-yl}piperidin-4-yl)methyl]-2,6-diazaspiro[3.3]heptan-2-yl}phenyl)-1H-pyrrolo[2,3-b]pyridine-3-carbonyl]-2,4-difluorophenyl}-3-fluoropyrrolidine-1-sulfonamide], at BRAF V600E, the DC50 lay in the range of 5 to 50 nM and the Dmax was under 35%. Moreover, on BRAF G466V, the DC50 was 1 to 10 nM and the Dmax was over 70%.

`O=C1CCC(N2Cc3cc(N4CC(C5CN(CC6CCN(c7ccc(-c8cnc9[nH]cc(C(=O)c%10c(F)ccc(NS(=O)(=O)N%11CC[C@@H](F)C%11)c%10F)c9c8)cc7)CC6)C5)C4)ccc3C2=O)C(=O)N1` (stereo partly drawn) [Compound 227, (3R)-N-[3-(5-{4-[4-({1′-[2-(2,6-dioxopiperidin-3-yl)-1-oxo-2,3-dihydro-1H-isoindol-5-yl]-[3,3′-biazetidin]-1-yl}methyl)piperidin-1-yl]phenyl}-1H-pyrrolo[2,3-b]pyridine-3-carbonyl)-2,4-difluorophenyl]-3-fluoropyrrolidine-1-sulfonamide]: on BRAF V600E, the DC50 lay in the range of 5 to 50 nM and the Dmax is under 35%. Besides, at BRAF G466V, the DC50 fell in the range of 1 to 10 nM and the Dmax is over 70%.

As to `CCCS(=O)(=O)Nc1ccc(F)c(C(=O)c2c[nH]c3ncc(-c4ccc(N5CCC(CN6CC7(C6)CN(c6ccc8c(c6)CN([C@H]6CCC(=O)NC6=O)C8=O)C7)CC5)cc4)cc23)c1F` [Compound 228, N-{3-[5-(4-{4-[(6-{2-[(3S)-2,6-dioxopiperidin-3-yl]-1-oxo-2,3-dihydro-1H-isoindol-5-yl}-2,6-diazaspiro[3.3]heptan-2-yl)methyl]piperidin-1-yl}phenyl)-1H-pyrrolo [2,3-b]pyridine-3-carbonyl]-2,4-difluorophenyl} propane-1-sulfonamide], the DC50 at BRAF V600E is 5 to 50 nM; on BRAF G466V, under 1 nM. Also, the Dmax was 35 to 70% on BRAF V600E and over 70% at BRAF G466V.

For the compound `CCCS(=O)(=O)Nc1ccc(F)c(C(=O)c2c[nH]c3ncc(-c4ccc(N5CCC(CN6CC7(C6)CN(c6ccc8c(c6)CN([C@@H]6CCC(=O)NC6=O)C8=O)C7)CC5)cc4)cc23)c1F` [Compound 229, N-{3-[5-(4-{4-[(6-{2-[(3R)-2,6-dioxopiperidin-3-yl]-1-oxo-2,3-dihydro-1H-isoindol-5-yl}-2,6-diazaspiro[3.3]heptan-2-yl)methyl]piperidin-1-yl}phenyl)-1H-pyrrolo [2,3-b]pyridine-3-carbonyl]-2,4-difluorophenyl} propane-1-sulfonamide], on BRAF V600E, the half-maximal degradation concentration (DC50) lay within 5 to 50 nM and the Dmax lay in the range of 35 to 70%. In addition, at BRAF G466V, the DC50 is 1 to 10 nM and the Dmax is over 70%.

Turning to `O=C1CC[C@H](N2Cc3cc(C4CCN(CC5CCN(c6ccc(-c7cnc8[nH]cc(C(=O)c9c(F)ccc(NS(=O)(=O)N%10CCCC%10)c9F)c8c7)cc6)CC5)CC4)ccc3C2=O)C(=O)N1` [Compound 230, N-{3-[5-(4-{4-[(4-{2-[(3S)-2,6-dioxopiperidin-3-yl]-1-oxo-2,3-dihydro-1H-isoindol-5-yl}piperidin-1-yl)methyl]piperidin-1-yl}phenyl)-1H-pyrrolo[2,3-b]pyridine-3-carbonyl]-2,4-difluorophenyl}pyrrolidine-1-sulfonamide], the DC50 was 5 to 50 nM at BRAF V600E and under 1 nM at BRAF G466V. In addition, the Dmax on BRAF V600E was 35 to 70%; at BRAF G466V it was over 70%.

For the compound `O=C1CC[C@@H](N2Cc3cc(C4CCN(CC5CCN(c6ccc(-c7cnc8[nH]cc(C(=O)c9c(F)ccc(NS(=O)(=O)N%10CCCC%10)c9F)c8c7)cc6)CC5)CC4)ccc3C2=O)C(=O)N1` [Compound 231, N-{3-[5-(4-{4-[(4-{2-[(3R)-2,6-dioxopiperidin-3-yl]-1-oxo-2,3-dihydro-1H-isoindol-5-yl}piperidin-1-yl)methyl]piperidin-1-yl}phenyl)-1H-pyrrolo[2,3-b]pyridine-3-carbonyl]-2,4-difluorophenyl}pyrrolidine-1-sulfonamide], on BRAF V600E, the DC50 lay within 5 to 50 nM and the Dmax lay in the range of 35 to 70%. Also, on BRAF G466V, the half-maximal degradation concentration (DC50) lay within 1 to 10 nM and the Dmax is over 70%.
